The assay has as its target T1, Prostaglandin G/H synthase 1 (Ovis aries, UniProt P05979).
T1 sequence (P05979 whole entry): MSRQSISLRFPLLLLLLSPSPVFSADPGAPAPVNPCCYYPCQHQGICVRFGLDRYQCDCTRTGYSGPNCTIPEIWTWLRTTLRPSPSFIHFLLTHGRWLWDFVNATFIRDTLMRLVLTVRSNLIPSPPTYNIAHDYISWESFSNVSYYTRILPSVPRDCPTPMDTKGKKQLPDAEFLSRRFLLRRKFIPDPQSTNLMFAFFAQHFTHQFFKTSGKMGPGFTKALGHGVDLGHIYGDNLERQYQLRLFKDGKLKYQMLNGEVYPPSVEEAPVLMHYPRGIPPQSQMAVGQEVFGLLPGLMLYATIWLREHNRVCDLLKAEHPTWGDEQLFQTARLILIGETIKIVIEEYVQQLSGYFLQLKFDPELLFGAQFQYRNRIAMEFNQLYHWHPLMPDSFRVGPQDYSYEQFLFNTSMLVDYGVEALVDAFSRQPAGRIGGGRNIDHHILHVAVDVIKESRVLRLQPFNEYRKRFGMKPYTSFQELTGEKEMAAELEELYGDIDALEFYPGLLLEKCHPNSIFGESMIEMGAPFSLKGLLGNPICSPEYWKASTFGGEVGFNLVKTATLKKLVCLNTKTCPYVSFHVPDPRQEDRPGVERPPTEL
In words: In vitro inhibitory concentration against ovine Cyclooxygenase-1.

For the compound `CS(=O)(=O)c1ccc(/C(=C/c2ccccc2)c2ccccc2)cc1`, the midpoint of inhibition, the IC50, lay at 0.14 µM.
As for `Cc1ccc(/C=C(\c2ccccc2)c2ccc(S(C)(=O)=O)cc2)cc1`, the IC50 was more than 100 µM.
For `Cc1ccc(C(=Cc2ccc(S(C)(=O)=O)cc2)c2ccc(C)cc2)cc1`, the half-maximal inhibitory concentration (IC50) is more than 100 µM.
The figure for `CS(=O)(=O)c1ccc(C=C(c2ccc(F)cc2)c2ccc(F)cc2)cc1` is more than 100 µM.
In the case of `CS(=O)(=O)c1ccc(/C(=C/c2ccc(Cl)cc2)c2ccccc2)cc1`, the IC50 was more than 100 µM.
Turning to `CS(=O)(=O)c1ccc(/C(=C/c2ccc(F)cc2)c2ccccc2)cc1`, the IC50 is more than 100 µM.
Consider `CS(=O)(=O)c1ccc(C=C(c2ccc(Cl)cc2)c2ccc(Cl)cc2)cc1`, for which the IC50 is more than 100 µM.
In turn, `CS(=O)(=O)c1ccc(/C(=C/c2ccc(F)c(F)c2)c2ccccc2)cc1` came in with an IC50 of more than 100 µM.

In general, IC50 refers to the concentration at which inhibition is half-maximal.

(Values after ChEMBL document CHEMBL1141887, “Design and synthesis of (E)-1,1,2-triarylethenes: novel inhibitors of the cyclooxygenase-2 (COX-2) isozyme” (Bioorg Med Chem Lett, 2005).)
